Values quoted from earlier work in patent US20210154215A1, “Antifungal Cuticle Oil Composition” (Zenvision Pharma LLP, priority 2018, published 2021).

Row | SMILES | Solubility in ethanol | Solubility in methanol (methanol) | Solubility in methylene chloride (methylene chloride) | Solubility in water | Solubility in propylene glycol (propylene glycol)
1 | CN(C/C=C/C#CC(C)(C)C)Cc1cccc2ccccc12.Cl [Terbinafine hydrochloride, (E)-N-(6,6-dimethyl-2-hepten-4-ynyl)-N-methyl-1-naphthalenemethanamine hydrochloride] | soluble | freely soluble | freely soluble | slightly soluble | –
2 | OB1OCc2cc(F)ccc21 [Tavaborole, 5-fluoro-1,3-dihydro-1-hydroxy-2,1-benzoxaborole] | freely soluble | – | – | slightly soluble | freely soluble
3 | C=C1CCN([C@H](C)[C@](O)(Cn2cncn2)c2ccc(F)cc2F)CC1 [Efinaconazole, (2R,3R)-2-(2,4-difluorophenyl)-3-(4-methylenepiperidin-1yl)-1-(1H-1,2,4-triazol-1-yl)butan-2ol] | – | – | – | practically insoluble | –
